From patent publication US12295970B2, “Imidazoquinoline compounds and prodrugs thereof” (UNIVERSITY OF KANSAS, priority 2019, dated 2025)
“Also recorded” adds a separate entry of the source.

Legend:
canine PBMCs = test: In vitro cytokine secretion assay in canine PBMCs (Example 3); type: cell-based; details: 15 hours, ELISA
Excerpt: As a TLR7/8 agonist, R848 binds to endosomal TLR7 and 8 receptors located on antigen presenting cells (APCs). The activation of APCs produces pro-inflammatory cytokines including TNF-α, type I IFN and IL-12. These cytokines, together with stimulated APCs that take up tumor antigens, enhance the activation of anti-tumor Th-1 immune responses that involve both CD4^+ T helper cells and CD8^+ cytotoxic T cells.^16 To evaluate the Th-1 associated cytokine production in vitro, isolated canine PBMCs were treated with R848, formulated or unformulated R848-Toco, and the secretion of TNF-α and IL-12 were measured by ELISA as markers of generalized inflammatory response. Canines were chosen as a model over mice because of the greater genetic similarity to humans and more similar immune systems.^46 Peripheral blood from healthy canine donors of 7-10 years age (similar to the age of typical canines with cancer^14) was obtained with appropriate informed consent of the owner. Blood (8 mL per tube) was drawn via sterile venipuncture into a BD Vacutainer cell preparation tube containing sodium heparin (BD Biosciences). PBMCs were isolated within one hour following procurement by density gradient centrifugation according to the manufacturer protocol and resuspended to 3×10^6 cells/mL in sterile RPMI 1640 medium with L-glutamine (Gibco) supplemented with 100 IU/mL penicillin, 100 μg/mL streptomycin (Corning) and 10% (v/v) heat-inactivated Fetalgro (RMBIO). Corning 3917, 96-well tissue culture treated plates were seeded with the PBMC suspension (180 μL/well), 20 μL of the serially diluted R848 samples were added in triplicate and HA-Toco vehicle in duplicate to yield the desired concentrations in a 1% (v/v) DMSO cell suspension. […] Sample cytokine concentrations were determined by interpolation of a four-parameter logistic curve of the recombinant standards using GraphPad Prism 6. […] Cytokine secretion levels were measured by ELISA (Duoset, R&D Systems, Minneapolis, MN, USA) according to the manufacturer protocol.

[1] = tested on: canine peripheral blood mononuclear cells (cPBMCs); test: Cytokine production in canine PBMCs by ELISA (Example 2); type: cell-based; details: ± SD, 20 μM, 29 hours, ELISA, triplicate
Procedure: The imidazoquinolines were further screened for cytokine production in canine peripheral blood mononuclear cells (cPBMCs). […] TNFα and IL-12 were chosen as they are typically seen in a Th-1 cytokine response.
Peripheral blood from a healthy canine donor was obtained with appropriate informed consent of the owner and under approved institutional guidelines. Blood (8 mL per tube) was drawn via sterile venipuncture into a BD Vacutainer cell preparation tube containing sodium heparin (BD Biosciences). PBMCs were isolated within one hour following procurement by density gradient centrifugation according to the manufacturer protocol and resuspended to 2.22×10^6 cells/mL in sterile RPMI 1640 medium with L-glutamine (Gibco) supplemented with 100 U/mL penicillin, 100 μg/mL streptomycin (Corning) and 10% (v/v) heat-inactivated Fetalgro (RMBIO). Corning 3917, 96-well tissue culture treated plates were seeded with the PBMC suspension (180 μL/well), 20 μL of the serially diluted TLR agonists were added in triplicate to yield the desired concentrations in a 1% (v/v) DMSO cell suspension. Cells were incubated at 37° C. in 5% CO2 for 9 hours (FIGS. 3A-3D) or 29 hours (Table 2) after which supernatants were removed and frozen at −80° C. Cytokine secretion levels were measured by ELISA (Duoset, R&D Systems) according to the manufacturer protocol. Samples and standards (n=3) were thawed and plated onto a Maxisorp flat-bottom, 384-well plate (Thermo Scientific) using a BioTek Precision XS pipetting system. Cytokine concentrations were determined by a hyperbolic or four-parameter logistic non-linear regression of the recombinant standards and subsequent interpolation using Graphpad Prism 7.0.

[2] = Depot effect: ear inflammation test in healthy rabbits; type: in vivo, New Zealand White rabbits; details: s.c. into rabbit ear
Procedure: It was observed that a local injection of the R848-Toco/HA-Toco nano-emulsion forms a depot at the site of injection and releases the loaded agonist in a sustained fashion, producing prolonged and localized immune stimulation while minimizing systemic off-target effects. To test the localization effect, an ear inflammation test was conducted in healthy rabbits. R848-Toco/HA-Toco and unformulated R848 were injected subcutaneously into opposing rabbit ears of subjects, and local inflammation and systemic TNF-α responses were observed.
New Zealand White rabbits (3-4 kg) were anaesthetized using 5% isoflurane and injected subcutaneously with 2.5 mg of R848 in 250 μl of vehicle into the ipsilateral ear. R848-Toco/HA-Toco was formulated as described above, and the R848 parent compound was formulated in 0.5% polysorbate 80 (w/v) in water. For histopathology, punch biopsies were taken 24 hours post injection, fixed in formalin, and analyzed by a board-certified veterinary pathologist (Kansas State Veterinary Hospital, […], KS, USA). In separate animals, blood samples were taken pre-injection and at 0.5, 1, 2, 5, and 24 h post-injection time points from the contra-lateral ear (marginal vein, 22 ga). Whole blood was centrifuged at 1500×g for 5 min and the serum were collected for cytokine evaluation. All samples and controls were prepared, and serum cytokine levels were measured.

CCOCc1nc2c(N)nc3ccccc3c2n1CC(C)(C)O [Compound 2, resiquimod, reference compound]
IL-12 levels (canine PBMCs): highest
secretion of TNF-α (canine PBMCs): strong secretion
Cytokine IFNg [1]: 26 ± 7 pg/mL
Cytokine IL-2 [1]: 120 ± 12 pg/mL
Cytokine IL-6 [1]: 380 ± 80 pg/mL
Cytokine IL-10 [1]: 21 ± 2 pg/mL
Cytokine IL-12 [1]: 2800 ± 520 pg/mL
Cytokine TNFa [1]: 190 ± 30 pg/mL
local response at the injection site ([2]; 2.5 mg of R848 in 250 μl): minimum change; also recorded: no local reaction
plasma TNF-α levels ([2]; 0.5-24 h post-injection, n=4): significant elevation
